Legend:
HIV-1 RT P23L = molecular target: T1, HIV-1 RT P23L (Human immunodeficiency virus type 1 group M subtype B, UniProt P03366, P835L); experiment: Reverse transcriptase (RT) assay, P23L mutant; format: biochemical
T1 construct: an HIV RT clone pKRT2 containing only the RT p66 gene regulated by the lac operon/trc promoter; made in house; host or cells: E. coli JM109, vector pKK233-2
Description: Among the enzymes for which Human Immunodeficiency Virus (HIV-1) encodes is a reverse transcriptase (1), so-named because it transcribes a DNA copy from an RNA template. This activity can be quantitatively measured in a cell-free enzyme assay and is based upon the observation that reverse transcriptase is able to use a synthetic template poly r(C) primed with a biotinylated oligo d(G) to transcribe a radio-labelled DNA strand utilising 3H-dGTP as a substrate. The assay described below utilises the wild-type enzyme (which is the predominant form of the enzyme observed in patients infected with HIV-1) and can also be used with mutant RT enzymes (for example, Y181C, prepared by site-directed mutagenesis in which the tyrosine residue at codon 181 has been replaced by a cysteine residue) in analogous assay conditions. This assay allows compounds to be evaluated for their effectiveness at inhibiting the mutant enzymes.
Some HIV-1 IIIB clone BH10 RT mutants were provided by Dr. C.-K. Shih (Boehringer Ingelheim Pharmaceutials Inc., U.S.A.) in the vector pKK233-2 (Pharmacia). Briefly an HIV RT clone pKRT2 containing only the RT p66 gene regulated by the lac operon/trc promoter was obtained from Dr. W. Summers (Yale University) (2). A variety of specific amino acid substitutions were introduced into the wild-type RT gene by site-directed mutagenesis. RT clones were subcloned into the pKK233-2 bacterial expression vector. Clones provided included wild-type, Val106Ala, Tyr181Cys, Tyr188Cys, Tyr188Leu, Gly190Ala and Pro236Leu. Others were made in-house by site-directed mutagenesis of the pKK233-2 RT clones including Lys103Asn, Lys103Asn/Tyr181Cys, Lys103Asn/Leu100Ile, Lys103Asn/Pro225His, and Lys103Asn/Val108Ile.
Purification of recombinant reverse transcriptase was performed using a combination of methods previously described (3). A single colony from a fresh plate of transformed JM109 cells was used to initiate growth of a pre-culture grown o/n at 37° C. Two liters of growth medium were inoculated with this pre-culture. At OD600˜1.5 (5-6 h at 37° C.), RT gene expression was induced with IPTG (1 mM final), and the fermentation was continued for a few more hours at 37° C. After centrifugation, supernatants were discarded while cell pellets were pooled and stored at −80° C. until purification. Cells were thawed at 4° C. overnight and suspended in lysis buffer (MES 50 mM pH 6, EDTA 1 mM, 10% v/v glyerol, 0.02% w/v OBG, 0.02% w/v sodium azide). Lysozyme was added and the mixture was incubated on ice for 40 minutes. After homogenization using a bounce in presence of lysozyme and sonication, the cells were centrifuged for 30 minutes. Supernatant (S1) was saved and stored at 4° C. […]

HIV-1 RT K103N/Y181C = molecular target: T2, HIV-1 RT K103N/Y181C (Human immunodeficiency virus type 1 group M subtype B, UniProt P03366, K702N/Y780C); experiment: Reverse transcriptase (RT) assay, K103N/Y181C mutant; format: biochemical
T2 construct: an HIV RT clone pKRT2 containing only the RT p66 gene regulated by the lac operon/trc promoter; made in house; host or cells: E. coli JM109, vector pKK233-2
Method in brief: (§1)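 Compounds are evaluated against recombinant HIV-1 RT mutants in a cell-free polymerase reaction. The reaction uses poly r(C)·oligo d(G)-biotin and radiolabelled 3H-dGTP.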

[1] = tested on: HIV coding for mutant reverse transcriptase K103N; experiment: ELISA (p24) assay of HIV replication in C8166 cell culture, K103N virus; format: cell-based, HIV-1; conditions: Human immunodeficiency virus 1, C8166, 72 h, read-out: EC50 K103N
Experimental: (§2) Compounds of the invention were tested for their ability to inhibit HIV replication in cell culture in a 96-well plate assay. Complete RPMI 1640, consisting of RPMI 1640+10% fetal bovine serum, 10 μg/ml gentamycin and 10 μM β-mercaptoethanol was used for dilution of the compound as well as cell growth medium. The T lymphocyte cell line C8166 was infected at a multiplicity of infection of 0.001 with viruses coding for wild-type and mutant reverse transcriptase. Cells were then incubated for three days in the presence of serial dilutions of the compounds of the invention. The supernatant was pooled from eight replica wells and the concentration of extracellular p24 was determined using a commercially available HIV-1 p24 antigen assay kit (Beckman-Coulter®). The level of inhibition (% inhibition) was calculated with the following equation: [formula]

HIV-1 RT K103N/L100I = molecular target: T3, HIV-1 RT K103N/L100I (Human immunodeficiency virus type 1 group M subtype B, UniProt P03366, K702N/L699I); experiment: Reverse transcriptase (RT) assay, K103N/L100I mutant; format: biochemical
T3 construct: an HIV RT clone pKRT2 containing only the RT p66 gene regulated by the lac operon/trc promoter; made in house; host or cells: E. coli JM109, vector pKK233-2
Method in brief: as §1

HIV-1 RT V106A = molecular target: T4, HIV-1 RT V106A (Human immunodeficiency virus type 1 group M subtype B, UniProt P03366, V705A); experiment: Reverse transcriptase (RT) assay, V106A mutant; format: biochemical
T4 construct: an HIV RT clone pKRT2 containing only the RT p66 gene regulated by the lac operon/trc promoter; made in house; host or cells: E. coli JM109, vector pKK233-2
Method in brief: as §1

[2] = tested on: HIV coding for mutant reverse transcriptase V106A; experiment: ELISA (p24) assay of HIV replication in C8166 cell culture, V106A virus; format: cell-based, HIV-1; conditions: Human immunodeficiency virus 1, C8166, 72 h, read-out: EC50 V106A
Experimental: as §2

HIV-1 RT Y181C = molecular target: T5, HIV-1 RT Y181C (Human immunodeficiency virus type 1 group M subtype B, UniProt P03366, Y780C); experiment: Reverse transcriptase (RT) assay, Y181C mutant; format: biochemical
T5 construct: an HIV RT clone pKRT2 containing only the RT p66 gene regulated by the lac operon/trc promoter; made in house; host or cells: E. coli JM109, vector pKK233-2
Method in brief: as §1

[3] = tested on: HIV coding for mutant reverse transcriptase K103N/L100I; experiment: ELISA (p24) assay of HIV replication in C8166 cell culture, K103N/L100I virus; format: cell-based, HIV-1; conditions: Human immunodeficiency virus 1, C8166, 72 h, read-out: EC50 K103N/L100I
Experimental: as §2

HIV-1 RT K103N/V108I = molecular target: T6, HIV-1 RT K103N/V108I (Human immunodeficiency virus type 1 group M subtype B, UniProt P03366, K702N/V707I); experiment: Reverse transcriptase (RT) assay, K103N/V108I mutant; format: biochemical
T6 construct: an HIV RT clone pKRT2 containing only the RT p66 gene regulated by the lac operon/trc promoter; made in house; host or cells: E. coli JM109, vector pKK233-2
Method in brief: as §1

For `CCN1c2ncc(CCOc3cc[n+]([O-])c4ccccc34)cc2C(=O)N(C)c2ccc(F)nc21` [compound 11, 5,11-Dihydro-11-ethyl-2-fluoro-5-methyl-8-{2-{(1-oxido-4-quinolinyl)oxy}-ethyl}-6H-dipyrido[3,2-b:2′,3′-e][1,4]diazepin-6-one], the IC50 (HIV-1 RT P23L) was 56 nM, the IC50 (HIV-1 RT K103N/Y181C) was 55 nM and the EC50 [1] was 2 nM. For the same molecule, the IC50 (HIV-1 RT K103N/L100I) was 102 nM, the IC50 (HIV-1 RT V106A) was 336 nM and the EC50 [2] was 28 nM. For the same molecule, the IC50 (HIV-1 RT Y181C) was 27 nM, the EC50 [3] was 3.2 nM and the IC50 (HIV-1 RT K103N/V108I) was 55 nM.
`CCN1c2ncc(CCOc3cc[n+]([O-])c4ccccc34)cc2C(=O)N(C)c2cccnc21` [compound 21, 5,11-Dihydro-11-ethyl-5-methyl-8-{2-{(1-oxido-4-quinolinyl)oxy}ethyl}-6H-dipyrido[3,2-b:2′,3′-e][1,4]diazepin-6-one] gave an IC50 (HIV-1 RT P23L) of 129 nM, an IC50 (HIV-1 RT K103N/Y181C) of 95 nM and an EC50 [1] of 3.5 nM. For the same molecule, the IC50 (HIV-1 RT K103N/L100I) was 168 nM, the IC50 (HIV-1 RT V106A) was 1110 nM and the EC50 [2] was 65 nM. The IC50 (HIV-1 RT Y181C) was 51 nM, the EC50 [3] was 5.9 nM and the IC50 (HIV-1 RT K103N/V108I) was 120 nM.
`CCN1c2ncc(CCOc3cc[n+]([O-])c4ccccc34)cc2C(=O)N(C)c2ccc(Cl)nc21` [compound 17, 2-Chloro-5,11-dihydro-11-ethyl-5-methyl-8-{2-{(1-oxido-4-quinolinyl)oxy}-ethyl}-6H-dipyrido[3,2-b:2′,3′-e][1,4]diazepin-6-one] was tested, and the IC50 (HIV-1 RT P23L) was 60 nM, the IC50 (HIV-1 RT K103N/Y181C) was 48 nM and the EC50 [1] was 1.5 nM. For the same molecule, the IC50 (HIV-1 RT K103N/L100I) was 40 nM, the IC50 (HIV-1 RT V106A) was 319 nM and the EC50 [2] was 24 nM. For the same molecule, the IC50 (HIV-1 RT Y181C) was 29 nM, the EC50 [3] was 1.2 nM and the IC50 (HIV-1 RT K103N/V108I) was 83 nM.

From US20020028807A1, “Non-nucleoside reverse transcriptase inhibitors” (priority 2000, published 2002)
